Measured values: patent US9993505B2, “Innervation of engineered structures” (WAKE FOREST UNIVERSITY HEALTH SCIENCES, priority 2012, dated 2018)

Columns and labels:
[1] = system: initially non-innervated internal anal sphincter (IAS) smooth muscle construct; experiment: Real time force generation of bioengineered IAS construct, initially non-innervated, placed 1 mm away from the innervated construct (Example 1); assay type: cell-based, rabbit
[2] = system: intrinsically innervated rabbit colon circular smooth muscle construct; experiment: Real time force generation of bioengineered colon smooth muscle construct, intrinsically innervated (Example 2); assay type: cell-based
[3] = system: initially non-innervated rabbit colon circular smooth muscle construct; experiment: Real time force generation of bioengineered colon smooth muscle construct, initially non-innervated (Example 2); assay type: cell-based
[4] = system: intrinsically innervated internal anal sphincter (IAS) smooth muscle construct; experiment: Real time force generation of bioengineered IAS construct, initially intrinsically innervated (Example 1); assay type: cell-based, rabbit

CC(=O)OCC[N+](C)(C)C [Acetylcholine, acetylcholine]
force generation induced by acetylcholine ([1]; Acetylcholine 1 μM, day 20, initially non-innervated IAS construct): 80 μN | average contraction induced by Ach ([2]; 1 μM Ach, innervated colon constructs): 150±24 μN | average contraction induced by Ach ([3]; 1 μM Ach, non-innervated colon constructs): 130±28 μN | force generation induced by acetylcholine ([4]; Acetylcholine 1 μM, day 20, innervated IAS construct): 153 μN

[Cl-].[K+] [KCl, potassium chloride]
average contraction induced by KCl [2]: 300±24 μN | average contraction induced by KCl [3]: 224±42 μN

NC1=N[C@H](O)[C@H]2[C@H]3O[C@]4(O)O[C@@H]([C@@H](O)[C@@]2(N1)[C@@H]4O)[C@]3(O)CO [TTX, tetrodotoxin]
inhibition of EFS-induced relaxation by pre-treatment [1]: completely inhibited | inhibition of acetylcholine-induced force generation by pre-treatment [1]: 40% | attenuation of peak maximal Ach contraction in the presence of TTX [2]: 50-60% | effect of TTX preincubation on response to EFS [2]: completely abolished | inhibition of VIP-induced relaxation in the presence of TTX [2]: 60% | effect of TTX on EFS-induced relaxation [3]: completely blocked | effect of TTX on maximal Ach contraction [3]: reduced the maximal contraction | inhibition of VIP-induced relaxation in the presence of TTX [3]: 50% | inhibition of EFS-induced relaxation by pre-treatment [4]: completely inhibited | inhibition of acetylcholine-induced force generation by pre-treatment [4]: 58%

CN1[C@@H]2CC[C@H]1C[C@@H](OC(=O)C(CO)c1ccccc1)C2 (some centres unmarked) [atropine]
inhibition of acetylcholine-induced force generation by pre-treatment [1]: 75% | inhibition of acetylcholine-induced force generation by pre-treatment [4]: 90%

vasoactive intestinal peptide [VIP]
maximal relaxation induced by VIP ([2]; 1 μM VIP, innervated colon constructs): 145±15 μN | maximal relaxation induced by VIP ([3]; 1 μM VIP, non-innervated colon constructs): 120±18 μN
